Data: the NIST ThermoML archive (doi:10.1016/j.jct.2012.06.003)
± gives the expanded uncertainty stated by the source.

Columns and labels:
[1] = for Normal melting temperature: Crystal
[2] = Molar enthalpy of transition or fusion; details: DSC

CCCCCC[n+]1cccc(C)c1.O=S(=O)([O-])C(F)(F)F [1-hexyl-3-methylpyridinium trifluoromethanesulfonate]
Triple point temperature ([1]; Crystal 2, DTA): 310.3 ± 0.4 K
Normal melting temperature ([1]; DTA): 64.61 ± 0.39 °C
Normal melting temperature ([1]; Visual method): 63 ± 0.1 °C
Molar enthalpy of transition or fusion ([2]; Crystal 2): 0.467 ± 0.0526 kcal/mol
Molar enthalpy of transition or fusion ([2]; Crystal): 10 ± 0.217 kcal/mol
